Experiments:
Assay type in all cases: functional
LOX IMVI = experiment: Growth inhibition of human LOXIMVI cells assessed as cell growth at 10^-4 M by sulforhodamine B assay; settings: read-out: Activity
NCI-H322M = experiment: Growth inhibition of human NCI-H322M cells by sulforhodamine B assay
UO-31 = experiment: Growth inhibition of human UO31 cells by sulforhodamine B assay
HT-29 = experiment: Growth inhibition of human HT-29 cells assessed as cell growth at 10^-8 M by sulforhodamine B assay; settings: read-out: Activity
T47D = experiment: Growth inhibition of human T47D cells by sulforhodamine B assay
SF-295 = experiment: Growth inhibition of human SF295 cells assessed as cell growth at 10^-7 M by sulforhodamine B assay; settings: read-out: Activity
PC-3 = experiment: Growth inhibition of human PC3 cells assessed as cell growth at 10^-4 M by sulforhodamine B assay; settings: read-out: Activity
BT-549 [1] = experiment: Growth inhibition of human BT549 cells by sulforhodamine B assay
DU-145 = experiment: Growth inhibition of human DU145 cells assessed as cell growth at 10^-4 M by sulforhodamine B assay; settings: read-out: Activity
U-251 = experiment: Growth inhibition of human U251 cells assessed as cell growth at 10^-8 M by sulforhodamine B assay; settings: read-out: Activity
CCRF-CEM = experiment: Growth inhibition of human CCRF-CEM cells by sulforhodamine B assay
[2] = Growth inhibition of human Hs 578T cells by sulforhodamine B assay
MDA-MB-231 = experiment: Growth inhibition of human MDA-MB-231 cells assessed as cell growth at 10^-6 M by sulforhodamine B assay; settings: read-out: Activity
HOP-62 = experiment: Growth inhibition of human HOP62 cells assessed as cell growth at 10^-7 M by sulforhodamine B assay; settings: read-out: Activity
[3] = Growth inhibition of human Hs 578T cells assessed as cell growth at 10^-4 M by sulforhodamine B assay; settings: read-out: Activity
[4] = Growth inhibition of human Hs 578T cells assessed as cell growth at 10^-8 M by sulforhodamine B assay; settings: read-out: Activity
SR = experiment: Growth inhibition of human SR cells assessed as cell growth at 10^-6 M by sulforhodamine B assay; settings: read-out: Activity
SNB-19 = experiment: Growth inhibition of human SNB19 cells assessed as cell growth at 10^-6 M by sulforhodamine B assay; settings: read-out: Activity
NCI-H23 = experiment: Growth inhibition of human NCI-H23 cells assessed as cell growth at 10^-7 M by sulforhodamine B assay; settings: read-out: Activity
BT-549 [5] = experiment: Growth inhibition of human BT549 cells assessed as cell growth at 10^-6 M by sulforhodamine B assay; settings: read-out: Activity
BT-549 [6] = experiment: Growth inhibition of human BT549 cells assessed as cell growth at 10^-8 M by sulforhodamine B assay; settings: read-out: Activity
MCF7 = experiment: Growth inhibition of human MCF7 cells assessed as cell growth at 10^-4 M by sulforhodamine B assay; settings: read-out: Activity
MOLT-4 = experiment: Growth inhibition of human MOLT4 cells assessed as cell growth at 10^-4 M by sulforhodamine B assay; settings: read-out: Activity
HCT-15 = experiment: Growth inhibition of human HCT15 cells assessed as cell growth at 10^-4 M by sulforhodamine B assay; settings: read-out: Activity
UACC-62 = experiment: Growth inhibition of human UACC62 cells assessed as cell growth at 10^-6 M by sulforhodamine B assay; settings: read-out: Activity
SK-MEL-5 [7] = experiment: Growth inhibition of human SK-MEL-5 cells assessed as cell growth at 10^-8 M by sulforhodamine B assay; settings: read-out: Activity
SW-620 = experiment: Growth inhibition of human SW620 cells assessed as cell growth at 10^-7 M by sulforhodamine B assay; settings: read-out: Activity
TK-10 = experiment: Growth inhibition of human TK10 cells assessed as cell growth at 10^-4 M by sulforhodamine B assay; settings: read-out: Activity
SN12C = experiment: Growth inhibition of human SN12C cells by sulforhodamine B assay
SK-MEL-5 [8] = experiment: Growth inhibition of human SK-MEL-5 cells assessed as cell growth at 10^-6 M by sulforhodamine B assay; settings: read-out: Activity
A549 = experiment: Growth inhibition of human A549/ATCC cells assessed as cell growth at 10^-7 M by sulforhodamine B assay; settings: read-out: Activity
RPMI-8226 = experiment: Growth inhibition of human RPMI8226 cells assessed as cell growth at 10^-4 M by sulforhodamine B assay; settings: read-out: Activity
[9] = read-out: LC50 (the source's name)
[10] = read-out: pLC50 (the source's name) (converted)

## CC(C)=CC(=O)O[C@@H]1CC(C)(C)C[C@H]2C3=CC[C@@H]4[C@@]5(C)CC[C@H](O)C(C)(C)[C@@H]5CC[C@@]4(C)[C@]3(C)CC[C@@]12C(=O)O [Reduced Lantadene B]
LOX IMVI
  growth at 100 µM: -35%
NCI-H322M; read-out: GI50
  GI50: 3.62 µM
NCI-H322M; read-out: LC50
  LC50 (50% lethal concentration): 58 µM
NCI-H322M; read-out: TGI
  TGI: 15 µM
NCI-H322M; read-out: pGI50 (converted)
  GI50: 3.63 µM
NCI-H322M; read-out: pLC50 (converted)
  LC50 (50% lethal concentration): 57.5 µM
NCI-H322M; read-out: pTGI (converted)
  TGI: 15.1 µM
UO-31; read-out: GI50
  GI50: 3.69 µM
UO-31; [9]
  CC50: 45.4 µM
UO-31; read-out: TGI
  TGI: 15.5 µM
UO-31; read-out: pGI50 (converted)
  GI50: 3.72 µM
UO-31; [10]
  CC50: 45.7 µM
UO-31; read-out: pTGI (converted)
  TGI: 15.5 µM
HT-29
  growth at 0.01 µM: 91%
T47D; read-out: GI50
  GI50: 16.7 µM
T47D; [9]
  CC50: > 100 µM
T47D; read-out: TGI
  TGI: 63.4 µM
T47D; read-out: pGI50 (converted)
  GI50: 16.6 µM
T47D; [10]
  CC50: > 100 µM
T47D; read-out: pTGI (converted)
  TGI: 63.1 µM
SF-295
  growth at 0.1 µM: 80%
PC-3
  growth at 100 µM: -71%
BT-549 [1]; read-out: GI50
  GI50: 6.61 µM
BT-549 [1]; [9]
  CC50: 72.1 µM
BT-549 [1]; read-out: TGI
  TGI: 24.2 µM
BT-549 [1]; read-out: pGI50 (converted)
  GI50: 6.61 µM
BT-549 [1]; [10]
  CC50: 72.4 µM
BT-549 [1]; read-out: pTGI (converted)
  TGI: 24 µM
DU-145
  growth at 100 µM: -75%
U-251
  growth at 0.01 µM: 96%
CCRF-CEM; read-out: GI50
  GI50: 2.83 µM
CCRF-CEM; [9]
  CC50: > 100 µM
CCRF-CEM; read-out: TGI
  TGI: 34.8 µM
CCRF-CEM; read-out: pGI50 (converted)
  GI50: 2.82 µM
CCRF-CEM; [10]
  CC50: > 100 µM
CCRF-CEM; read-out: pTGI (converted)
  TGI: 34.7 µM
[2]; read-out: GI50
  GI50: 3.04 µM
[2]; [9]
  CC50: > 100 µM
[2]; read-out: TGI
  TGI: 12.3 µM
[2]; read-out: pGI50 (converted)
  GI50: 3.02 µM
[2]; [10]
  CC50: > 100 µM
[2]; read-out: pTGI (converted)
  TGI: 12.3 µM
MDA-MB-231
  growth at 1 µM: 85%
HOP-62
  growth at 0.1 µM: 87%
[3]
  growth at 100 µM: -45%
[4]
  growth at 0.01 µM: 96%
SR
  growth at 1 µM: 92%
SNB-19
  growth at 1 µM: 86%
NCI-H23
  growth at 0.1 µM: 92%
BT-549 [5]
  growth at 1 µM: 93%
BT-549 [6]
  growth at 0.01 µM: 97%
MCF7
  growth at 100 µM: -43%
MOLT-4
  growth at 100 µM: -43%
HCT-15
  growth at 100 µM: -44%
UACC-62
  growth at 1 µM: 82%
SK-MEL-5 [7]
  growth at 0.01 µM: 93%
SW-620
  growth at 0.1 µM: 95%
TK-10
  growth at 100 µM: -68%
SN12C; read-out: GI50
  GI50: 2.88 µM
SN12C; [9]
  CC50: 37 µM
SN12C; read-out: TGI
  TGI: 10.9 µM
SN12C; read-out: pGI50 (converted)
  GI50: 2.88 µM
SN12C; [10]
  CC50: 37.2 µM
SN12C; read-out: pTGI (converted)
  TGI: 11 µM
SK-MEL-5 [8]
  growth at 1 µM: 77%
A549
  growth at 0.1 µM: 79%
RPMI-8226
  growth at 100 µM: -19%

## CC1(C)C[C@@H](O)[C@]2(C(=O)O)CC[C@]3(C)C(=CC[C@@H]4[C@@]5(C)C/C(=C\C=C\c6ccccc6)C(=O)C(C)(C)[C@@H]5CC[C@]43C)[C@@H]2C1
LOX IMVI
  growth at 100 µM: -90%
NCI-H322M; read-out: GI50
  GI50: 3.45 µM
NCI-H322M; read-out: LC50
  LC50 (50% lethal concentration): 48.7 µM
NCI-H322M; read-out: TGI
  TGI: 13.7 µM
NCI-H322M; read-out: pGI50 (converted)
  GI50: 3.47 µM
NCI-H322M; read-out: pLC50 (converted)
  LC50 (50% lethal concentration): 49 µM
NCI-H322M; read-out: pTGI (converted)
  TGI: 13.8 µM
UO-31; read-out: GI50
  GI50: 3.39 µM
UO-31; [9]
  CC50: 45.9 µM
UO-31; read-out: TGI
  TGI: 13.6 µM
UO-31; read-out: pGI50 (converted)
  GI50: 3.39 µM
UO-31; [10]
  CC50: 45.7 µM
UO-31; read-out: pTGI (converted)
  TGI: 13.5 µM
HT-29
  growth at 0.01 µM: 104%
T47D; read-out: GI50
  GI50: 3.83 µM
T47D; [9]
  CC50: > 100 µM
T47D; read-out: TGI
  TGI: 18.4 µM
T47D; read-out: pGI50 (converted)
  GI50: 3.8 µM
T47D; [10]
  CC50: > 100 µM
T47D; read-out: pTGI (converted)
  TGI: 18.2 µM
SF-295
  growth at 0.1 µM: 98%
PC-3
  growth at 100 µM: -67%
BT-549 [1]; read-out: GI50
  GI50: 3.84 µM
BT-549 [1]; [9]
  CC50: 55.9 µM
BT-549 [1]; read-out: TGI
  TGI: 14.8 µM
BT-549 [1]; read-out: pGI50 (converted)
  GI50: 3.8 µM
BT-549 [1]; [10]
  CC50: 56.2 µM
BT-549 [1]; read-out: pTGI (converted)
  TGI: 14.8 µM
DU-145
  growth at 100 µM: -92%
U-251
  growth at 0.01 µM: 92%
CCRF-CEM; read-out: GI50
  GI50: 2.79 µM
CCRF-CEM; [9]
  CC50: > 100 µM
CCRF-CEM; read-out: TGI
  TGI: 8.51 µM
CCRF-CEM; read-out: pGI50 (converted)
  GI50: 2.82 µM
CCRF-CEM; [10]
  CC50: > 100 µM
CCRF-CEM; read-out: pTGI (converted)
  TGI: 8.51 µM
[2]; read-out: GI50
  GI50: 3.29 µM
[2]; [9]
  CC50: > 100 µM
[2]; read-out: TGI
  TGI: 20.6 µM
[2]; read-out: pGI50 (converted)
  GI50: 3.31 µM
[2]; [10]
  CC50: > 100 µM
[2]; read-out: pTGI (converted)
  TGI: 20.4 µM
MDA-MB-231
  growth at 1 µM: 92%
HOP-62
  growth at 0.1 µM: 91%
[3]
  growth at 100 µM: -35%
[4]
  growth at 0.01 µM: 97%
SR
  growth at 1 µM: 94%
SNB-19
  growth at 1 µM: 88%
NCI-H23
  growth at 0.1 µM: 95%
BT-549 [5]
  growth at 1 µM: 100%
BT-549 [6]
  growth at 0.01 µM: 101%
MCF7
  growth at 100 µM: -68%
MOLT-4
  growth at 100 µM: -28%
HCT-15
  growth at 100 µM: -80%
UACC-62
  growth at 1 µM: 88%
SK-MEL-5 [7]
  growth at 0.01 µM: 99%
SW-620
  growth at 0.1 µM: 97%
TK-10
  growth at 100 µM: -86%
SN12C; read-out: GI50
  GI50: 2.92 µM
SN12C; [9]
  CC50: 36.1 µM
SN12C; read-out: TGI
  TGI: 10.7 µM
SN12C; read-out: pGI50 (converted)
  GI50: 2.88 µM
SN12C; [10]
  CC50: 36.3 µM
SN12C; read-out: pTGI (converted)
  TGI: 10.7 µM
SK-MEL-5 [8]
  growth at 1 µM: 95%
A549
  growth at 0.1 µM: 95%
RPMI-8226
  growth at 100 µM: -6%

— ChEMBL document CHEMBL2413072, “Synthesis and in vitro anticancer studies of novel C-2 arylidene congeners of lantadenes” (2013)
